molecular target: T1, human M4 muscarinic acetylcholine receptor (Homo sapiens, UniProt P08173); experiment: human FLIPR-based M4 PAM assay (CHO-K1 cells, human M4 receptor and Gαqi5, calcium dye fluorescence, acetylcholine at 20% of maximum); assay type: cell-based; settings: inflection point (IP) of 4 parameter logistic dose response curve; CHO-K1 cells with human M4 receptor and Gαqi5; FLIPR Tetra
T1 construct: expressed in transfected cells; host or cells: CHO-K1
T1 sequence (P08173 1-479): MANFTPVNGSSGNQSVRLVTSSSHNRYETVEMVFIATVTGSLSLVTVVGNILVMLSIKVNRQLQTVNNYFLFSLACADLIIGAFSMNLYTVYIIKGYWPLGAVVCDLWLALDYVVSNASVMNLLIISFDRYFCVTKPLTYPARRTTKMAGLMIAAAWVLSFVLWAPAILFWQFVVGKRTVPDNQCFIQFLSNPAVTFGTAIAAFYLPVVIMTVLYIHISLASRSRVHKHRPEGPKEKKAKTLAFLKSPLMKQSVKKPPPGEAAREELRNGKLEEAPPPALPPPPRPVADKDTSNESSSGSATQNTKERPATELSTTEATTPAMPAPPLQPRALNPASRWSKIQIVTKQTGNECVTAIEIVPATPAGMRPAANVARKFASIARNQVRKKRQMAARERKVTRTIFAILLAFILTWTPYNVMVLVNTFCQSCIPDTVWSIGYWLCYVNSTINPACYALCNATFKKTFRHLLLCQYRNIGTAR
Experimental: In a typical experiment the M4 muscarinic acetylcholine receptor modulating activity of the compounds of the present invention was determined in accordance with the following experimental method. […] On the day of assay, growth medium is removed, the cells are washed 2 times with wash buffer, and cells are incubated in dye loading buffer at 37° C., 5% CO2 for ˜1 hour. […] Next, 10 uL of acetylcholine is added (final concentration calculated so as to achieve 20% of the maximum acetycholine response), and the fluorescence reading is continued for 3.5 min. In some cases, a third addition of acetylcholine (final concentration calculated to achieve 70% of the maximal acetylcholine response) is performed. The resulting dose response curves are fit to a 4 parameter logistic equation and the final result is determined as the inflection point (IP) of the curve
CHO-K1 cells stably transfected with human M4 receptor and chimeric G-protein Gαqi5 are thawed from liquid N2 storage, resuspended in growth medium, plated in black, clear bottom 384 well plates, and incubated 16-20 hours at 37° C., 5% CO2.
On the day of assay, growth medium is removed, the cells are washed 2 times with wash buffer, and cells are incubated in dye loading buffer at 37° C., 5% CO2 for ˜1 h. […] Next, 10 uL of acetylcholine is added (final concentration calculated so as to achieve 20% of the maximum acetycholine response), and the fluorescence reading is continued for 3.5 min. In some cases, a third addition of acetylcholine (final concentration calculated to achieve 70% of the maximal acetylcholine response) is performed.

**Q.** With `Cc1cc2c(=O)[nH]c(=O)[nH]c2nc1N1CCC(OCC2CC2)CC1` [Example 33, 7-(4-(cyclopropyl-methoxy)piperidin-1-yl)-6-methylpyrido[2,3-d]pyrimidine-2,4(1H,3H)-dione] as the molecule, how does the EC50 read?
**A.** 52 nM

**Q.** For `Cc1cc2c(=O)[nH]c(=O)[nH]c2nc1N1CCC(OCC2CCCCC2)CC1` [Example 34, 7-(4-(cyclohexyl-methoxy)piperidin-1-yl)-6-methylpyrido[2,3-d]pyrimidine-2,4(1H,3H)-dione], which EC50 is on record?
**A.** 361 nM

**Q.** Which EC50 does the source give for `COc1ccc(OC2CCN(c3nc4occc(=O)c4cc3C)CC2)cn1` [Example 35, 7-(4-((6-methoxypyridin-3-yl)oxy)piperidin-1-yl)-6-methyl-4H-pyrano[2,3-b]pyridin-4-one] here?
**A.** 38 nM

**Q.** For `Cc1cc2c(=O)[nH]c(=O)[nH]c2nc1N1CCC(OCC(C)C)CC1` [Example 36, 7-(4-isobutoxy-piperidin-1-yl)-6-methylpyrido[2,3-d]pyrimidine-2,4(1H,3H)-dione], which EC50 is on record?
**A.** 138 nM

**Q.** With `CCc1cc2c(=O)[nH]ncc2nc1N1CCC(Oc2ccc(OC)nc2)CC1` [Example 37, 3-ethyl-2-(4-((6-methoxypyridin-3-yl)oxy)piperidin-1-yl)pyrido[2,3-d]pyridazin-5(6H)-one] as the molecule, how does the EC50 read?
**A.** 71 nM

**Q.** How did the EC50 turn out when `Cc1cc2c(=O)[nH]c(=O)[nH]c2nc1N1CCC(OCC2CCCC2)CC1` [Example 38, 7-(4-(cyclopentyl-methoxy)piperidin-1-yl)-6-methylpyrido[2,3-d]pyrimidine-2,4(1H,3H)-dione] was run?
**A.** 112 nM

**Q.** `COCc1nc2nc(N3CCC(Oc4cccc(C#N)c4)CC3)c(C)cc2c(=O)[nH]1` [Example 39, 3-((1-(2-(methoxymethyl)-6-methyl-4-oxo-3,4-dihydropyrido[2,3-d]pyrimidin-7-yl)piperidin-4-yl)oxy)benzonitrile] was tested. Which EC50 did it give?
**A.** 32 nM

**Q.** Which EC50 does the source give for `COc1ccc(OC2CCN(c3nc4nc(C)n(C)c(=O)c4cc3C)CC2)cn1` [Example 40, 7-(4-((6-methoxypyridin-3-yl)oxy)piperidin-1-yl)-2,3,6-trimethyl-pyrido[2,3-d]pyrimidin-4(3H)-one] here?
**A.** 155 nM

**Q.** How did the EC50 turn out when `COc1ccc(OC2CCN(c3nc4oc(C)cc(=O)c4cc3C)CC2)cn1` [Example 41, 7-(4-((6-methoxypyridin-3-yl)oxy)piperidin-1-yl)-2,6-dimethyl-4H-pyrano[2,3-b]pyridin-4-one] was run?
**A.** 100 nM

**Q.** How did the EC50 turn out when `COc1ccc(OC2CCN(c3nc4cnn(CCO)c(=O)c4cc3C)CC2)cn1` [Example 42, 6-(2-Hydroxyethyl)-2-(4-((6-methoxypyridin-3-yl)oxy)piperidin-1-yl)-3-methylpyrido[2,3-d]pyridazin-5(6H)-one] was run?
**A.** 110 nM

**Q.** For `Cc1cc2c(=O)n(CCO)ncc2nc1N1CCC(OCC2(C)CC2)CC1` [Example 43, 6-(2-hydroxyethyl)-3-methyl-2-(4-((1-methylcyclopropyl)methoxy)piperidin-1-yl)pyrido[2,3-d]pyridazin-5(6H)-one], which EC50 is on record?
**A.** 133 nM

**Q.** For `COc1ccc(OC2CCN(c3nc4ncn(C)c(=O)c4cc3C)CC2)cn1` [Example 44, 7-(4-((6-Methoxypyridin-3-yl)oxy)piperidin-1-yl)-3,6-dimethylpyrido[2,3-d]pyrimidin-4(3H)-one], which EC50 is on record?
**A.** 135 nM

**Q.** With `Cc1cc2c(=O)n(C)c(C)nc2nc1N1CCC(Oc2cnc3c(c2)COC3)CC1` [Example 45, 7-(4-((5,7-dihydrofuro[3,4-b]pyridin-3-yl)oxy)piperidin-1-yl)-2,3,6-trimethyl-pyrido[2,3-d]pyrimidin-4(3H)-one] as the molecule, how does the EC50 read?
**A.** 361 nM

**Q.** Which EC50 does the source give for `COc1ccc(OC2CCN(c3nc4c(cc3C)CCNC4=O)CC2)cn1` [Example 46, 2-(4-((6-Methoxypyridin-3-yl)oxy)piperidin-1-yl)-3-methyl-6,7-dihydro-1,7-naphthyridin-8(51H)-one] here?
**A.** 587 nM

**Q.** For `COc1ccc(OC2CCN(c3nc4[nH]c(=O)oc(=O)c4cc3C)CC2)cn1` [Example 47, 7-(4-((6-Methoxypyridin-3-yl)oxy)piperidin-1-yl)-6-methyl-2H-pyrido[2,3-d][1,3]oxazine-2,4(1H)-dione], which EC50 is on record?
**A.** 78 nM

**Q.** How did the EC50 turn out when `COc1ccc(OC2CCN(c3nc4c(cc3C)CNC(=O)N4)CC2)cn1` [Example 48, 7-(4-((6-Methoxypyridin-3-yl)oxy)piperidin-1-yl)-6-methyl-3,4-dihydropyrido[2,3-d]pyrimidin-2(1H)-one] was run?
**A.** 272 nM

**Q.** With `COc1ccc(OC2CCN(c3nc4c(cnc(=O)n4C)cc3C)CC2)cn1` [Example 49, 7-(4-((6-Methoxypyridin-3-yl)oxy)piperidin-1-yl)-1,6-dimethylpyrido[2,3-d]pyrimidin-2(1H)-one] as the molecule, how does the EC50 read?
**A.** 210 nM

**Q.** How did the EC50 turn out when `COc1ccc(OC2CCN(c3nc4[nH]c(=N)[nH]c(=O)c4cc3C)CC2)cn1` [Example 50, 2-Imino-7-(4-((6-methoxypyridin-3-yl)oxy)piperidin-1-yl)-6-methyl-2,3-dihydropyrido[2,3-d]pyrimidin-4(1H)-one] was run?
**A.** 469 nM

**Q.** How did the EC50 turn out when `COc1ccc(OC2CCN(c3nc4cnn(CO)c(=O)c4cc3C)CC2)cn1` [Example 51, 6-(Hydroxymethyl)-2-(4-((6-methoxypyridin-3-yl)oxy)piperidin-1-yl)-3-methylpyrido[2,3-d]pyridazin-5(6H)-one] was run?
**A.** 46 nM

**Q.** With `COc1ccc(OC2CCN(c3nc4oc(=O)[nH]c(=O)c4cc3C)CC2)cn1` [Example 52, 7-(4-((6-Methoxypyridin-3-yl)oxy)piperidin-1-yl)-6-methyl-2H-pyrido[3,2-e][1,3]oxazine-2,4(3H)-dione] as the molecule, how does the EC50 read?
**A.** 15 nM

**Q.** How did the EC50 turn out when `COc1ccc(OC2CCN(c3nc4c(=O)[nH][nH]c(=O)c4cc3C)CC2)cn1` [Example 53, 2-(4-((6-Methoxypyridin-3-yl)oxy)piperidin-1-yl)-3-methyl-6,7-dihydropyrido[2,3-d]pyridazine-5,8-dione] was run?
**A.** 260 nM

**Q.** `COc1ccc(OC2CCN(c3nc4ccoc(=O)c4cc3C)CC2)cn1` [Example 54, 2-(4-((6-Methoxypyridin-3-yl)oxy)piperidin-1-yl)-3-methyl-5H-pyrano[4,3-b]pyridin-5-one] was tested. Which EC50 did it give?
**A.** 85 nM

**Q.** `COc1ccc(OC2CCN(c3nc4cc(C)oc(=O)c4cc3C)CC2)cn1` [Example 55, 2-(4-((6-Methoxypyridin-3-yl)oxy)piperidin-1-yl)-3,7-dimethyl-5H-pyrano[4,3-b]pyridin-5-one] was tested. Which EC50 did it give?
**A.** 70 nM

— patent US10836775B2, “6,6-fused heteroaryl piperidine ether allosteric modulators of the M4 muscarinic acetylcholine receptor” (Merck Sharp & Dohme Corp., priority 2016, dated 2020)
